Assay results: article PMC6039181, “An expanded allosteric network in PTP1B by multitemperature crystallography, fragment screening, and covalent tethering” (eLife, 2018)

Molecular target: T1, PTP1B (Homo sapiens, UniProt P18031, C32S/C92V/K197C)
T1 construct: gene PTPN1; residues 1–321
T1 sequence (P18031 1-321 C32S/C92V/K197C): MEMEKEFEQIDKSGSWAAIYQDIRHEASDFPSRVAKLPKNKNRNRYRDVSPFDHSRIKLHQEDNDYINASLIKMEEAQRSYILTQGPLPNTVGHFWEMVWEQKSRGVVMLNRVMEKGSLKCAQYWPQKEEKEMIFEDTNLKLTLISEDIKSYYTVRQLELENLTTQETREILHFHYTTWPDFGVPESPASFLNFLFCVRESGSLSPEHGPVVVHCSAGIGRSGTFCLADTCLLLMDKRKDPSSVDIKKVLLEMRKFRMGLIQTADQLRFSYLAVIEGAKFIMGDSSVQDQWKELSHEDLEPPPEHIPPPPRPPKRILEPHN
Assay: crystal structure of tethered complex ([…] Å); mass-spectrometry tethering EC50 […]; pNPP inhibition Ki
Format: biochemical

Compound: CN(C)CCSSCC(=O)Nc1cc(-c2ccc(F)cc2F)ccc1O [compound 2, 2]
- Ki: 7.1 ± 1.1 µM
